We go through three compounds from paper PMC11648822, “Lactam Truncation Yields a Dihydroquinazolinone Scaffold with Potent Antimalarial Activity that Targets PfATP4” (Chemmedchem, 2024).

Each structure is given as a SMILES string. In brackets after ≈: the same amount, converted by molar mass. Marks after values point to notes of the source that are not given here.

Data set [1] can be described thus: Human liver microsome stability. Type of data set: in vitro ADME. The conditions noted are these: human liver microsomes; read-out: HLM CLint. The source says:
(§1) Human liver microsome stability, rat hepatocyte stability, aqueous solubility and eLogD are platform assays conducted by TCG Lifesciences and undertaken using previously described protocols.[10]
(In general: Microsomes from liver hold many membrane-bound enzymes, among them those of drug oxidation.)

Data set [2] can be described thus: Aqueous solubility (pH 7.4). Type of data set: physicochemical. The conditions noted are these: aqueous medium at pH 7.4, pH 7.4, aqueous buffer.
Source text: as §1

A short description of data set [3]: eLogD shake-flask method. Format: physicochemical.
Source text: as §1

Data set [4] concerns P. falciparum (Pf) 3D7 parasites. As to the kind of experiment: P. falciparum LDH viability assay. Type of data set: cell-based. As to conditions: Plasmodium falciparum, 3D7, 72 h, LDH activity at 72 h; mean and SD of 3 independent experiments. The source says: This assay is a platform assay conducted at the Walter and Eliza Hall Institute and uses a protocol previously decsribed.[30, 31]

Data set [5] is described as follows: Human HepG2 cytotoxicity assay (Cell Titre Glo). Format: cell-based. As to conditions: HepG2 cells, growth inhibition at 48 h, 4 replicate experiments, read-out: HepG2 CC50 (SD). The text has this:
This assay uses Cell TitreGlo as a metabolic maker for human HepG2 cell growth and uses a protocol previously described.[32]

The nature of data set [6]: Rat hepatocyte stability. Type of data set: in vitro ADME. As to conditions: rat hepatocytes; read-out: Rat Hep CLint.
Source text: as §1

The subject of data set [7] is P. berghei ANKA. Description: P. berghei 4-day mouse model. Type of data set: in vivo. As to conditions: 30 mg/kg p.o. q.d. On the procedure: In this model, mice are infected with P. berghei ANKA asexual blood stage parasites. Compounds are then administered by oral gavage at 20 mg/kg 2, 24, 48, and 72 hours after the parasite infection.
Each day, a fresh aliquot of the compound stock was diluted 1/10 in water for administration to mice. 8 week old female mice (Ozgene) on day 0 were infected with 2×10^7 P. berghei ANKA‐infected erythrocytes. […] 2 mice were also dosed with artesunate using the same regime at 30 mg/kg. The parasitemia of mice was assessed by visualizing Giemsa‐stained thin blood smears by microscopy and a minimum of 1000 RBCs were counted. To calculate the percent antimalarial activity the following formula was used: 100 ‐ (mean parasitemia treated day 4 post‐infection/mean parasitemia vehicle control day 4 post‐infection)×100. Mice were culled the day following the last oral gavage.
Briefly, ‘donor’ female Swiss mice were infected intraperitoneally (IP) with blood stage P. berghei parasites constitutively expressing GFP (P. berghei ANKA GFPcon 259cl2).[36] Three days later, groups of 3 ‘acceptor’ Swiss mice were infected intravenously with 1 x 10^7 parasitised red blood cells from the ‘donor mice’. […] Control mice were left untreated. Peripheral blood samples were taken 24 h after administration of the last dose, and parasitemia was measured by flow cytometry (proportion of GFP‐positive cells in 100,000 recorded events using Attune Nxt, ThermoFisher) and microscopic analysis of Giemsa‐stained blood smears. Parasitemia values were averages of 3 mice per group.

Data set [8] has as its target T1, PfATP4 (membranes prepared from 3D7 parasites) (Plasmodium falciparum, UniProt A0A143ZZK9).
T1 construct: The membranes were prepared from isolated trophozoite‐stage 3D7 parasites; endogenous in cells; host or cells: P. falciparum 3D7 trophozoites (membrane preparation)
Description: PfATP4 Na+ assay (membrane ATPase), 3D7 membranes. Type of data set: biochemical, P. falciparum. The conditions noted are these: 50 nM; any of the conditions tested; negative control. As to the method:
Figure 4 Dihydroquinazolinone analogs 14 and 36 (WJM062) inhibit Na^+‐ATPase activity in membranes prepared from isolated P. falciparum parasites, consistent with them being PfATP4 inhibitors. (A) The effects of dihydroquinazolinone compounds (2 μM), dihydroartemisinin (DHA; 50 nM; negative control) and 0.2 % v/v DMSO (solvent‐only control) on membrane ATPase activity under high‐[Na^+] conditions (152 mM Na^+) and low‐[Na^+] conditions (2 mM Na^+; stemming from the addition of 1 mM Na2ATP) in the presence and absence of the PfATP4 inhibitor cipargamin (50 nM). The membranes were prepared from isolated trophozoite‐stage 3D7 parasites. The Pi produced is expressed as a percentage of that measured in the 152 mM Na^+ Control. The data are from four independent experiments performed with different membrane preparations; the symbols show the data from individual experiments and the bars show the mean (+SEM). In individual experiments, the Pi produced in the 152 mM Na^+ Control varied from 66 to 96 nmol per mg (total) protein per min. A repeated measures ANOVA with a post hoc Tukey test was used to compare the (pre‐normalised) data for different compounds and conditions. For comparisons between different conditions for the same test compound (or for the Control), significant differences are shown with black asterisks. For comparisons between the Control and a compound under the same test condition, significant differences are shown with coloured asterisks (in this case, grey asterisks, as the only significant differences were between the control and the dihydroquinazolinone compounds in the 152 mM Na^+ condition). ***P<0.001. (B) Concentration‐dependence of the effects of dihydroquinazolinone compounds on PfATP4‐associated ATPase activity in membranes prepared from 3D7 parasites. The data are the mean (shown + or − SEM) obtained from four independent experiments performed with different membrane preparations, with the exception of the lowest and second‐lowest concentrations of the compounds, for which data are from two and three independent experiments, respectively. (C and D) Potency of dihydroquinazolinone compounds against PfATP4‐associated ATPase activity in membranes prepared from Dd2‐Polδ‐PfATP4^G358S parasites (open triangles) and their Dd2‐Polδ parents (closed triangles). The data are the mean (shown + or − SEM) from four (C) or three (D) independent experiments. In B−D, the Pi production measured in the low‐[Na^+] (2 mM) condition was subtracted from that measured in high‐[Na^+] (152 mM) in the presence of each of the different concentrations of dihydroquinazolinone compounds to calculate the PfATP4‐associated ATPase activity. The PfATP4‐associated ATPase activity is expressed as a percentage of that obtained for the high‐[Na^+] (152 mM) Control.
Membrane ATPase assays were performed using a PiColorLock Gold Phosphate Detection System (Innova Biosciences), essentially as described previously.[25] Membranes were prepared either from isolated 3D7 trophozoites or from isolated Dd2‐Polδ‐PfATP4^G358S [22] and Dd2‐Polδ trophozoites.[26]

T1 sequence (A0A143ZZK9 whole entry): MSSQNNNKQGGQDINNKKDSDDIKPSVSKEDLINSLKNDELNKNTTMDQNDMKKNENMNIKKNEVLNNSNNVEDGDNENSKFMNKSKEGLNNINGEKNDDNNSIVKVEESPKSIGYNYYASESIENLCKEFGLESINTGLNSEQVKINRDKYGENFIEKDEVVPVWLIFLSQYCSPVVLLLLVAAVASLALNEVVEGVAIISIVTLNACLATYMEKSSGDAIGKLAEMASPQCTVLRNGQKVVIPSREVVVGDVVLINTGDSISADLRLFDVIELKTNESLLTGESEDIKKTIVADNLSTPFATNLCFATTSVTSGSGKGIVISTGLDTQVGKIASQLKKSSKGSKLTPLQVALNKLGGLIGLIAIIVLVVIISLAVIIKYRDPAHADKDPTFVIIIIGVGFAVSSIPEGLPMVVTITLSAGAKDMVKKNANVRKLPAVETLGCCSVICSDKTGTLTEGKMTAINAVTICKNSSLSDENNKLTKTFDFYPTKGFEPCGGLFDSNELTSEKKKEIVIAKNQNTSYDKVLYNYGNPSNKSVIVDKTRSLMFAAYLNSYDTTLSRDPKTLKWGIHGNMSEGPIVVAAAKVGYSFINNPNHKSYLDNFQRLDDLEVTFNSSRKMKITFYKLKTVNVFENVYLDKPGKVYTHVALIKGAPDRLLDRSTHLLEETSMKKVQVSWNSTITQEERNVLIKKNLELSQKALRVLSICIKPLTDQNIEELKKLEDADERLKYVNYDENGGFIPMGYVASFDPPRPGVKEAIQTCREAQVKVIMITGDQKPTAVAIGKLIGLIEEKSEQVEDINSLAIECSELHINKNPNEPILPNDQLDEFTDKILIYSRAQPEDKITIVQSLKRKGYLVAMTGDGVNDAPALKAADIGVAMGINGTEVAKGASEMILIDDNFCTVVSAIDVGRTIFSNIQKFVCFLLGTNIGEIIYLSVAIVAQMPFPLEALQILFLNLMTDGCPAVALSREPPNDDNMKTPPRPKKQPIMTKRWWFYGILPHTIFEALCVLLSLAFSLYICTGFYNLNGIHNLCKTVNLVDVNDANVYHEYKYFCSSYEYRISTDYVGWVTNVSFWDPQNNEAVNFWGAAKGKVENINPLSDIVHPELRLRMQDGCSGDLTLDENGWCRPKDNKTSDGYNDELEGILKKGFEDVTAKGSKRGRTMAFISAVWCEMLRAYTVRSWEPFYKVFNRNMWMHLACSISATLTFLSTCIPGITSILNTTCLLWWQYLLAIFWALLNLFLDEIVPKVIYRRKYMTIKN

The term solubility denotes the dissolved amount per volume that the medium holds. Read a low solubility as a poorly soluble substance. One may read the EC50 as the concentration that produces a half-maximal response. A lower EC50 goes with an effect from little substance. Usually CC50 stands for the concentration that lowers cell viability or growth by half. Consider `CN1C(=O)c2ccc(-c3cnn(C)c3)cc2NC1(C)C(=O)Nc1cncc(Cl)c1` (stereo not drawn) [Compound 32, N‐(5‐Chloropyridin‐3‐yl)‐2,3‐dimethyl‐7‐(1‐methyl‐1H‐pyrazol‐4‐yl)‐4‐oxo‐1,2,3,4‐tetrahydroquinazoline‐2‐carboxamide], for which the microsomal CLint in data set [1] came to 34 µL/min/mg. The compound further returned a solubility in data set [2] of 7 µM (≈ 2.88 µg/mL). Besides, the eLogD in data set [3] is 2.9^[d]. For the same compound, the EC50 in data set [4] turned out to be 198 nM. In addition, the half-maximal cytotoxic concentration (CC50) at 48 h in data set [5] is > 40 µM. Further, the hepatocyte CLint in data set [6] is 5 µL/min/1e6 cells.

Turning to `C[C@H]1[C@H](OC(=O)CCC(=O)O)O[C@@H]2O[C@@]3(C)CC[C@H]4[C@H](C)CC[C@@H]1[C@@]24OO3` [artesunate, reference compound], in data set [7] (day 4), the “% parasitemia” value is given as 0.66%. Besides, the “% reduction in parasitemia” value in data set [7] (day 4, versus control) amounted to 96%.

With `C[C@H]1[C@@H](O)O[C@@H]2O[C@@]3(C)CC[C@H]4[C@H](C)CC[C@@H]1[C@@]24OO3` [dihydroartemisinin, reference compound], in data set [8], the “effect on membrane ATPase activity” value is given as “no effect”.
